Test results from ChEMBL document CHEMBL6071193, “Structure-Activity Relationship of Potent, Selective, and Orally Bioavailable Molecular Glue Degraders of CK1α” (ACS Med Chem Lett, 2024).
≈ marks a conversion by molar mass, not a printed value. Calls of active or inactive are those of the source. The calls are words filed in the database; no cut-off is given here.

What was measured:
[1] = Oral bioavailability in female CD-1 mouse at 10 mg/kg administered as 5% v/v NMP, 5% v/v solutol HS-15, 20% PEG 400 and 70% v/v normal saline formulation and measured after 24 hrs; format: ADME, organism-based; conditions: in vivo
[2] = molecular target: Protein cereblon/Eukaryotic peptide chain release factor GTP-binding subunit ERF3A (Homo sapiens) (UniProt Q96SW2+P15170); assay: PROTAC activity at CRBN (unknown origin)/human HiBiT-tagged GSPT1 transfected in HEK293 cells assessed as induction of GSPT1 degradation measured after 24 hrs by Nano-Glo reagent based luminescence analysis; format: cell-based
[3] = Stability in human plasma assessed as half-life at 10 uM measured upto 48 hrs by UPLC-MS/MS analysis; format: ADME, cell-free
[4] = test system: Jurkat; assay: Cytotoxicity against human Jurkat cells expressing HiBiT-tagged IKZF1 at 0.0001 to 100 uM measured over 24 hrs by Cell-Titer Glo assay; format: toxicity, cell-based; conditions: dose 0.0001-100 µM
[5] = molecular target: T1, Cereblon/Casein kinase I alpha (Homo sapiens, UniProt P48729+Q96SW2); assay: PROTAC activity at CRBN/HiBiT-tagged CK1alpha in HEK293 cells transfected with LgBiT expression vector assessed as induction of CK1alpha degradation by measuring maximal efficacy at 10 uM measured after 24 hrs by luminescence based GloMax Discover assay relative to control; format: cell-based
Target sequence in this assay (P48729 2-337 limits assumed): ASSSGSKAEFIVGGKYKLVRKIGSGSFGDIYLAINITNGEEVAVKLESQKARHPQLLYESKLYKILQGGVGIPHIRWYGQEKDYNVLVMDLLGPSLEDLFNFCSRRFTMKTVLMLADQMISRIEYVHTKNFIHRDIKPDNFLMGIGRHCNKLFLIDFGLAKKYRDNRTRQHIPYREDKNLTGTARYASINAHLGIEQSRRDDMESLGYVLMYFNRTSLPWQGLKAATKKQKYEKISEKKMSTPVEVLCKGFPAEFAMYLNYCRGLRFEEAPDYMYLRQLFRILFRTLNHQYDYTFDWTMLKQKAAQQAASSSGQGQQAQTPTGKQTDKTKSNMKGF
Target sequence in this assay (Q96SW2 whole entry partner): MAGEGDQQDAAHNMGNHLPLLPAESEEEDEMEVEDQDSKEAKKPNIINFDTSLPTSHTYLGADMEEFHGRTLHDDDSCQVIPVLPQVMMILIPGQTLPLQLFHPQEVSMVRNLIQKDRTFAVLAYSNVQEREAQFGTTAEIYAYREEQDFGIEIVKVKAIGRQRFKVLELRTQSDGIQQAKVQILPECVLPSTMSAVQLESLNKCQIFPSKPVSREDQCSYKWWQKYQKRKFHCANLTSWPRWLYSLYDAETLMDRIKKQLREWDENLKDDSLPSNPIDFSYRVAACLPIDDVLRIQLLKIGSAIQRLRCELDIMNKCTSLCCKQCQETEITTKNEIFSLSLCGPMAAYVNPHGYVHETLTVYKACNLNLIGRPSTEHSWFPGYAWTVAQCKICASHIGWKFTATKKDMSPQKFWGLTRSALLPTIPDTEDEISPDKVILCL

[6] = test system: MOLM-13; assay: Antiproliferative activity against human MOLM-13 cells incubated for 72 hrs by Cell-Titer Glo assay; format: functional, cell-based; conditions: MOLM-13, 72 h
[7] = Stability in mouse plasma assessed as half-life at 10 uM measured upto 48 hrs by UPLC-MS/MS analysis; format: ADME, cell-free; conditions: 48 h, 10 µM
[8] = Volume of distribution at steady state in female CD-1 mouse at 3 mg/kg, iv administered as 5% v/v NMP, 5% v/v solutol HS-15, 20% PEG 400 and 70% v/v normal saline formulation and measured after 24 hrs; format: ADME, organism-based; conditions: in vivo
[9] = test system: MOLM-13; assay: Downregulation of CK1alpha protein level in human MOLM-13 cells at 1 uM measured after 4 hrs by TMT-proteomic analysis; format: functional, cell-based
[10] = Metabolic stability in pooled human liver microsomes assessed as half-life at 10 uM measured upto 4 hrs in presence of NADPH by UPLC-MS/MS analysis; format: ADME, Microsome
[11] = Cmax in female CD-1 mouse at 10 mg/kg, po administered as 5% v/v NMP, 5% v/v solutol HS-15, 20% PEG 400 and 70% v/v normal saline formulation and measured after 24 hrs; format: ADME, organism-based; conditions: in vivo
[12] = Tmax in female CD-1 mouse at 10 mg/kg, po administered as 5% v/v NMP, 5% v/v solutol HS-15, 20% PEG 400 and 70% v/v normal saline formulation and measured after 24 hrs; format: ADME, organism-based; conditions: in vivo
[13] = test system: HEK293; assay: Cytotoxicity against HEK293 cells expressing HiBiT-tagged CK1alpha at 0.0001 to 100 uM measured over 24 hrs by Cell-Titer Glo assay; format: toxicity, cell-based; conditions: human, hek293, 24 h, dose 0.0001-100 µM
[14] = Solubility of compound at pH 7.4 incubated for 18 hrs by UV-spectra analysis; format: physicochemical; conditions: buffer, pH 7.4, 18 h
[15] = Half-life in female CD-1 mouse at 3 mg/kg, iv administered as 5% v/v NMP, 5% v/v solutol HS-15, 20% PEG 400 and 70% v/v normal saline formulation and measured after 24 hrs; format: ADME, organism-based; conditions: in vivo
[16] = AUClast in female CD-1 mouse at 3 mg/kg, iv administered as 5% v/v NMP, 5% v/v solutol HS-15, 20% PEG 400 and 70% v/v normal saline formulation and measured after 24 hrs; format: ADME, organism-based; conditions: in vivo
[17] = Metabolic stability in mouse liver microsomes assessed as half-life at 10 uM measured upto 4 hrs in presence of NADPH by UPLC-MS/MS analysis; format: ADME, Microsome; conditions: microsomes, 4 h, 10 µM
[18] = Apparent permeability across apical to basolateral side in MDCK-II cells at 10 micromol/L incubated for 1 hrs by UPLC/MS analysis; format: ADME, cell-based, Canis lupus familiaris; conditions: dog, mdck-ii, 1 h, 10 µM, dose 10 µmol/L
[19] = molecular target: T1, Cereblon/Casein kinase I alpha; assay: Binding affinity to Halo-tagged CRBN (unknown origin)/HiBiT-tagged CK1alpha in HEK293 cells transfected with LgBiT expression vector assessed as ternary complex formation preincubated with MG132 for 30 mins followed by compound addition and measured after 2 hrs by NanoBRET assay; format: cell-based
Target sequence in this assay (P48729 whole entry): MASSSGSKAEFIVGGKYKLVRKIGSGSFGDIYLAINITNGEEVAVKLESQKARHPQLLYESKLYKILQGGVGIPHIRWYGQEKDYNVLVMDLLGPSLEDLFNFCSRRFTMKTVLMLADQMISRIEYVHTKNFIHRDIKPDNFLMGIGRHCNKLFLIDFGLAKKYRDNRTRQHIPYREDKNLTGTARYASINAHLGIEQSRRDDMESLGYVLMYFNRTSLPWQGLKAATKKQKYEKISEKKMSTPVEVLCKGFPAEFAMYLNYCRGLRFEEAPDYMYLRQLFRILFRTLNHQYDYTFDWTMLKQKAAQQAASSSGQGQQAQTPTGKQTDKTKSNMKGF
Target sequence in this assay (Q96SW2 whole entry): as the sequence (Q96SW2 whole entry partner) above

[20] = Cmax in female CD-1 mouse at 3 mg/kg, iv administered as 5% v/v NMP, 5% v/v solutol HS-15, 20% PEG 400 and 70% v/v normal saline formulation and measured after 24 hrs; format: ADME, organism-based; conditions: in vivo
[21] = molecular target: T1, Cereblon/Casein kinase I alpha; assay: Binding affinity to Halo-tagged CRBN (unknown origin)/HiBiT-tagged CK1alpha in HEK293 cells transfected with LgBiT expression vector assessed as ternary complex formation by measuring fold increase in NanoBRET signal preincubated with MG132 for 30 mins followed by compound addition and measured after 2 hrs by NanoBRET assay relative to control; format: cell-based
Target sequence in this assay (P48729 2-337 limits assumed): as the sequence (P48729 2-337 limits assumed) above
Target sequence in this assay (Q96SW2 whole entry partner): as the sequence (Q96SW2 whole entry partner) above

[22] = Clearance in female CD-1 mouse assessed as hepatic blood flow at 3 mg/kg, iv administered as 5% v/v NMP, 5% v/v solutol HS-15, 20% PEG 400 and 70% v/v normal saline formulation and measured after 24 hrs; format: ADME, organism-based; conditions: in vivo
[23] = AUClast in female CD-1 mouse at 10 mg/kg, po administered as 5% v/v NMP, 5% v/v solutol HS-15, 20% PEG 400 and 70% v/v normal saline formulation and measured after 24 hrs; format: ADME, organism-based; conditions: in vivo
[24] = molecular target: T1, Cereblon/Casein kinase I alpha; assay: PROTAC activity at CRBN/HiBiT-tagged CK1alpha in HEK293 cells transfected with LgBiT expression vector assessed as induction of CK1alpha degradation by measuring degradation rate at 10 uM measured after 24 hrs by luminescence based GloMax Discover assay; format: cell-based
Target sequence in this assay (P48729 2-337 limits assumed): as the sequence (P48729 2-337 limits assumed) above
Target sequence in this assay (Q96SW2 whole entry partner): as the sequence (Q96SW2 whole entry partner) above

[25] = Apparent permeability across basolateral to apical side in MDCK-II cells at 10 micromol/L incubated for 1 hrs by UPLC/MS analysis; format: ADME, cell-based, Canis lupus familiaris; conditions: dog, mdck-ii, 1 h, 10 µM, dose 10 µmol/L
[26] = molecular target: Cereblon/Ikaros (Homo sapiens, UniProt Q96SW2+Q13422); assay: PROTAC activity at CRBN/HiBiT-tagged IKZF1 in human Jurkat cells transfected with LgBiT expression vector assessed as induction of IKZF1 degradation measured after 24 hrs by luminescence based GloMax Discover assay; format: cell-based
[27] = molecular target: T1, Cereblon/Casein kinase I alpha; assay: PROTAC activity at CRBN/HiBiT-tagged CK1alpha in HEK293 cells transfected with LgBiT expression vector assessed as induction of CK1alpha degradation measured after 24 hrs by luminescence based GloMax Discover assay; format: cell-based
Target sequence in this assay (P48729 whole entry): as the sequence (P48729 whole entry) above
Target sequence in this assay (Q96SW2 whole entry): as the sequence (Q96SW2 whole entry partner) above

Chain of Protein cereblon/Eukaryotic peptide chain release factor GTP-binding subunit ERF3A (Homo sapiens) (P15170 whole entry, looked up): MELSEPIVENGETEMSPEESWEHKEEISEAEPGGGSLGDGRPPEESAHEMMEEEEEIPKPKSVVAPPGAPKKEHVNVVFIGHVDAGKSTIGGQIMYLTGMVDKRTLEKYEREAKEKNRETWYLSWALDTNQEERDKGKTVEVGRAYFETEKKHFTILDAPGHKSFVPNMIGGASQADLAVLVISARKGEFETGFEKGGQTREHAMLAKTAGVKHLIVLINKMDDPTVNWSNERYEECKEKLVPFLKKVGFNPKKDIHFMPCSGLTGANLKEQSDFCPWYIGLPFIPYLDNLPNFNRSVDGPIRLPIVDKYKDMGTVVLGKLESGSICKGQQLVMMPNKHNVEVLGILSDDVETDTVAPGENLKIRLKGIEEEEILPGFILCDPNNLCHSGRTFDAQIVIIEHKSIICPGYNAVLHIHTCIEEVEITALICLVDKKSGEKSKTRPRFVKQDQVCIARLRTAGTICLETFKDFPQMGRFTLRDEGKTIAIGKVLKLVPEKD
Chain of Protein cereblon/Eukaryotic peptide chain release factor GTP-binding subunit ERF3A (Homo sapiens) (Q96SW2 whole entry, looked up): as the sequence (Q96SW2 whole entry partner) above

Structure (SMILES): O=C1CCC(N2Cc3cc(NC(=O)c4cccc(F)c4)ccc3C2=O)C(=O)N1 (configuration not stated)
- F [1]: 41%
- Activity [2]: inactive
- t1/2 [3]: 10.6 h
- Activity [4]: Non-Toxic
- Emax [5]: 88%
- IC50 [6]: 28 nM
- t1/2 [7]: 10 h
- Vdss [8]: 0.88 L/kg
- Activity [9]: Active
- t1/2 [10]: > 10 h
- Cmax [11]: 1617 ng/mL
- Tmax [12]: 0.25 h
- Activity [13]: Non-Toxic
- solubility [14]: 19 µM (≈ 7.25 µg/mL)
- t1/2 [15]: 1.19 h
- AUClast [16]: 2049 ng·h/mL
- t1/2 [17]: > 10 h
- Papp [18]: 0.6 ×10⁻⁶ cm/s
- EC50 [19]: 119 nM
- Cmax [20]: 6450 ng/mL
- fold change (FC) [21]: 7.4
- QH [22]: 27%
- AUClast [23]: 2804 ng·h/mL
- Activity [24]: 1.3 h⁻¹
- Papp [25]: 1.8 ×10⁻⁶ cm/s
- Activity [26]: inactive
- DC50 [27]: 4 nM
